Measurements published in patent US9045491B2, “Thienyl [3,2-D] pyrimidin-4-one compounds, preparation method, pharmaceutical compositions and use thereof” (SHANGHAI INSTITUTE OF MATERIA MEDICA, CHINESE ACADEMY OF …, priority 2011, dated 2015).

What was measured:
normal ICR mouse = experiment: Oral glucose tolerance test (OGTT), acute hypoglycemic effect of single oral dose; format: in vivo; settings: for hypoglycemic ability in vivo, oral glucose tolerance test: single dose 3 mg/kg by gavage, glucose 2.5 g/kg after 6 hours, FIGS. 7-10
Procedure: Acute hypoglycemic effect of single dose through mouth on the normal ICR mouse
Animal: ICR mouse (8-10 weeks old, sex: male, weight: 25-30 g, purchased from Shanghai SLAC Laboratory Animal Center).
1. Two days before the experiment, the food consumption was recorded and the daily food consumption of each animal was calculated;
2. The animals fasted overnight (⅓ of daily food consumption was provided, about 2 g);
3. The blood glucose was measured on the second day.
4. The medicament was administrated through gavage (1 mouse/min). After 6 hours, the blood glucose was measured. Glucose was administrated through gavage according to the body weight (2.5 g/kg). The blood glucose value was monitored at 30 min, 60 min, 90 min, and 120 min after administration.

DPP IV = target: T1, DPP IV (Mus musculus, UniProt P28843); experiment: DPP IV inhibitory activity in vivo: DPP IV activity in plasma of ICR mouse after single oral dose; settings: oral 3 mg/kg, compared with Alogliptin and Vildagliptin (LAF237), FIG. 1-6
T1 construct: from tissue; host or cells: plasma of ICR mouse
Procedure: Animals: ICR mouse (8-10 weeks old; sex: male; 25 g-30 g of body weight, purchased from Shanghai SLAC Laboratory Animal Center).
Meanwhile the solvent group was used as blank control. The blood was taken from orbital venous plexus of the mouse before administration, and 30, 60, 2 h, 4 h, 6 h, 8 h and […] after administration, respectively and loaded into Eppendorf tube (Qizhong Industrial (Shanghai) co., Ltd.) treated by anticoagulant. The plasma was obtained by centrifugation and DPP IV activity was determined.

[1] = Safety evaluation: single dose 100 mg/kg by gavage, one week observation; format: in vivo, ICR mouse; settings: for body weight and viscera index versus normal control group (in words) / acute toxicity / kidney index versus normal control group (in words): ICR mouse; for body weight and viscera index versus normal control group (in words) / Kidney index / Liver index / Spleen index / body weight / food consumption: 100 mg/kg single dose; for acute toxicity: 100 mg/kg single dose by gavage, one week; for kidney index versus normal control group (in words): 100 mg/kg, 7th day after administration; for Kidney index / Liver index / Spleen index / body weight / food consumption: normal ICR mouse; for Kidney index / Liver index / Spleen index: 7th day
Procedure: After grouping, each compound was administrated once through gavage according to the dose of 100 mg/kg at the same time.

T1 sequence (P28843 37-760 limits assumed): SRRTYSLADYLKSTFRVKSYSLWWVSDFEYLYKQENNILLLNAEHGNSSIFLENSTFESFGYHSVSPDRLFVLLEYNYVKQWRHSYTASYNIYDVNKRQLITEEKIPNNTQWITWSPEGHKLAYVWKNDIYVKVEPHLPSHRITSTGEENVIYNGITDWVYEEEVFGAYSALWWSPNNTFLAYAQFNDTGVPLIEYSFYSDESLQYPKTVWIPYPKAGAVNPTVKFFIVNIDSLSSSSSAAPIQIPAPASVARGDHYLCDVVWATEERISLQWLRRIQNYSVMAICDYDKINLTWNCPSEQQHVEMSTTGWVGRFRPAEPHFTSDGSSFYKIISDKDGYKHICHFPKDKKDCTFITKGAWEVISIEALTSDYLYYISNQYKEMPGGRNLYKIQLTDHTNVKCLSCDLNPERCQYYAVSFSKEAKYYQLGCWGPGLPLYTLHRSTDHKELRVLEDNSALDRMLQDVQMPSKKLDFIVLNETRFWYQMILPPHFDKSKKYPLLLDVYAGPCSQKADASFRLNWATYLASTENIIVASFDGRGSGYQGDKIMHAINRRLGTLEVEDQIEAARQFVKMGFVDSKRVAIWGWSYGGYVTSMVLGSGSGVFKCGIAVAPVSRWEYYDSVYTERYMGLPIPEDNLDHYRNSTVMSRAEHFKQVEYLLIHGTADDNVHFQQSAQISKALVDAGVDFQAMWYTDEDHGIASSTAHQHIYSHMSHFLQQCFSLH

Which “hypoglycemic ability in vivo, oral glucose tolerance test” value (normal ICR mouse) does the source give for `N#Cc1ccccc1Cn1c(N2CCC[C@@H](N)C2)nc2cc(C(Br)Br)sc2c1=O` [DC291411] here?
Its value is “comparable to that of Alogliptin”.

What about the “DPP IV activity of ICR mouse plasma after single dose (given as hypoglycemic ability in vivo)” value (“DPP IV activity of ICR mouse plasma” below) (DPP IV) of the same compound?
The value was “comparable to that of Alogliptin (3 mg), and better than that of Vildagliptin (LAF237, 15 mg)”.

What about the “body weight and viscera index versus normal control group (in words)” value [1] of the same compound?
Its value is “no statistical difference”.

And the acute toxicity [1]?
Its acute toxicity is “did not reflect obvious acute toxicity”.

What about the “kidney index versus normal control group (in words)” value [1] of the same compound?
Its value is “slightly lower than that of normal control group”.

What about the Kidney index [1] of the same compound?
Its Kidney index is 1.4 ± 0.1%.

What about the Liver index [1] of the same compound?
Its Liver index is 5.0 ± 0.4%.

And the Spleen index [1]?
The Spleen index was 0.4 ± 0.0%.

What about the body weight ([1]; 1 d after administration) of the same compound?
The body weight was 30.5 ± 1.6 g.

And the food consumption ([1]; 1 d after administration)?
The food consumption was 19.3 g · day^−1 · cage^−1.

And the body weight ([1]; 2 d after administration)?
The body weight was 31.2 ± 1.6 g.

And the food consumption ([1]; 2 d after administration)?
The food consumption was 21.3 g · day^−1 · cage^−1.

What about the body weight ([1]; 3 d after administration) of the same compound?
The body weight was 31.0 ± 1.7 g.

And the food consumption ([1]; 3 d after administration)?
The food consumption was 18.8 g · day^−1 · cage^−1.

And the body weight ([1]; 4 d after administration)?
The body weight was 31.5 ± 1.9 g.

What about the food consumption ([1]; 4 d after administration) of the same compound?
Its food consumption is 18.3 g · day^−1 · cage^−1.

And the body weight ([1]; 5 d after administration)?
Its body weight is 31.8 ± 1.5 g.

What about the food consumption ([1]; 5 d after administration) of the same compound?
The food consumption was 17.7 g · day^−1 · cage^−1.

What about the body weight ([1]; 6 d after administration) of the same compound?
Its body weight is 31.6 ± 1.8 g.

What about the food consumption ([1]; 6 d after administration) of the same compound?
The food consumption was 20.5 g · day^−1 · cage^−1.

And the body weight ([1]; 7 d after administration)?
Its body weight is 32.1 ± 1.7 g.

What about the food consumption ([1]; 7 d after administration) of the same compound?
Its food consumption is 21.9 g · day^−1 · cage^−1.

What about the body weight ([1]; before administration) of the same compound?
Its body weight is 30 ± 1.5 g.

What about the food consumption ([1]; before administration) of the same compound?
Its food consumption is 20.8 g · day^−1 · cage^−1.

With `COC(=O)c1csc2c(=O)n(Cc3ccccc3C#N)c(N3CCC[C@@H](N)C3)nc12` [DC291009] as the compound, how does the “hypoglycemic ability in vivo, oral glucose tolerance test after multiple single-dose administration” value (normal ICR mouse; single administration at multiple doses, FIGS. 11-12) read?
The value was “comparable to that of Alogliptin”.

And the “hypoglycemic ability in vivo, oral glucose tolerance test” value (normal ICR mouse)?
The value was “comparable to that of Alogliptin”.

And the “DPP IV activity of ICR mouse plasma” value (DPP IV)?
The value was “comparable to that of Alogliptin (3 mg), and better than that of Vildagliptin (LAF237, 15 mg)”.

And the “body weight and viscera index versus normal control group (in words)” value [1]?
Its value is “no statistical difference”.

What about the acute toxicity [1] of the same compound?
Its acute toxicity is “did not reflect obvious acute toxicity”.

And the “kidney index versus normal control group (in words)” value [1]?
The value was “slightly lower than that of normal control group”.

What about the Kidney index [1] of the same compound?
Its Kidney index is 1.4 ± 0.1%.

And the Liver index [1]?
Its Liver index is 5.3 ± 0.2%.

What about the Spleen index [1] of the same compound?
Its Spleen index is 0.4 ± 0.1%.

And the body weight ([1]; 1 d after administration)?
The body weight was 31.3 ± 2.0 g.

What about the food consumption ([1]; 1 d after administration) of the same compound?
The food consumption was 21.2 g · day^−1 · cage^−1.

What about the body weight ([1]; 2 d after administration) of the same compound?
Its body weight is 31.5 ± 2.3 g.

What about the food consumption ([1]; 2 d after administration) of the same compound?
The food consumption was 21.3 g · day^−1 · cage^−1.

What about the body weight ([1]; 3 d after administration) of the same compound?
Its body weight is 31.8 ± 2.3 g.

And the food consumption ([1]; 3 d after administration)?
Its food consumption is 22.6 g · day^−1 · cage^−1.

And the body weight ([1]; 4 d after administration)?
Its body weight is 32.3 ± 2.2 g.

And the food consumption ([1]; 4 d after administration)?
Its food consumption is 22.8 g · day^−1 · cage^−1.

And the body weight ([1]; 5 d after administration)?
The body weight was 32.4 ± 2.5 g.

And the food consumption ([1]; 5 d after administration)?
The food consumption was 22.2 g · day^−1 · cage^−1.

And the body weight ([1]; 6 d after administration)?
The body weight was 32.6 ± 2.6 g.

And the food consumption ([1]; 6 d after administration)?
Its food consumption is 21.9 g · day^−1 · cage^−1.

What about the body weight ([1]; 7 d after administration) of the same compound?
Its body weight is 33 ± 2.6 g.

What about the food consumption ([1]; 7 d after administration) of the same compound?
Its food consumption is 23.8 g · day^−1 · cage^−1.

What about the body weight ([1]; before administration) of the same compound?
The body weight was 30.8 ± 2.2 g.

And the food consumption ([1]; before administration)?
The food consumption was 23.3 g · day^−1 · cage^−1.

With `N#Cc1ccccc1Cn1c(N2CCC[C@@H](N)C2)nc2c(CO)csc2c1=O` [DC291004] as the compound, how does the “hypoglycemic ability in vivo, oral glucose tolerance test” value (normal ICR mouse) read?
Its value is “comparable to that of Alogliptin”.

What about the “DPP IV activity of ICR mouse plasma” value (DPP IV) of the same compound?
Its value is “comparable to that of Alogliptin (3 mg), and better than that of Vildagliptin (LAF237, 15 mg)”.

What about the “body weight and viscera index versus normal control group (in words)” value [1] of the same compound?
The value was “no statistical difference”.

And the acute toxicity [1]?
The acute toxicity was “did not reflect obvious acute toxicity”.

What about the “kidney index versus normal control group (in words)” value [1] of the same compound?
The value was “did not significantly differ”.

What about the Kidney index [1] of the same compound?
Its Kidney index is 1.5 ± 0.1%.

What about the Liver index [1] of the same compound?
Its Liver index is 5.3 ± 0.3%.

What about the Spleen index [1] of the same compound?
The Spleen index was 0.4 ± 0.0%.

What about the body weight ([1]; 1 d after administration) of the same compound?
Its body weight is 30.3 ± 1.0 g.

What about the food consumption ([1]; 1 d after administration) of the same compound?
The food consumption was 18.7 g · day^−1 · cage^−1.

And the body weight ([1]; 2 d after administration)?
The body weight was 30.8 ± 0.9 g.

And the food consumption ([1]; 2 d after administration)?
Its food consumption is 21.0 g · day^−1 · cage^−1.

What about the body weight ([1]; 3 d after administration) of the same compound?
The body weight was 31.0 ± 1.2 g.

And the food consumption ([1]; 3 d after administration)?
Its food consumption is 21.1 g · day^−1 · cage^−1.

What about the body weight ([1]; 4 d after administration) of the same compound?
Its body weight is 31.6 ± 1.2 g.

What about the food consumption ([1]; 4 d after administration) of the same compound?
Its food consumption is 21.5 g · day^−1 · cage^−1.

What about the body weight ([1]; 5 d after administration) of the same compound?
The body weight was 32.0 ± 1.6 g.

And the food consumption ([1]; 5 d after administration)?
The food consumption was 21.9 g · day^−1 · cage^−1.

What about the body weight ([1]; 6 d after administration) of the same compound?
Its body weight is 32.0 ± 1.2 g.

What about the food consumption ([1]; 6 d after administration) of the same compound?
Its food consumption is 21.5 g · day^−1 · cage^−1.

What about the body weight ([1]; 7 d after administration) of the same compound?
Its body weight is 32.5 ± 1.3 g.

What about the food consumption ([1]; 7 d after administration) of the same compound?
The food consumption was 24.1 g · day^−1 · cage^−1.

And the body weight ([1]; before administration)?
The body weight was 30.2 ± 0.7 g.

And the food consumption ([1]; before administration)?
The food consumption was 22.5 g · day^−1 · cage^−1.
